One data set is described as follows: in vitro. Type of data set: in vitro ADME. The note with it: human, Caco-2, Caco-2 (2-7d) Papp. The method, then:
To further evaluate potential behavior in human subjects, the transport through Caco-2 cells was evaluated for the putative prodrugs. Caco-2 cells are commonly used to evaluated the potential absorption/permeability of molecules (G. Gaviraghi et al. in Pharmacokinetic optimization in drug research. Biological, Pharmacokinetic and Computational Strategies. B. Testa et al. eds. Wiley Interscience VCH, Zurich 2001 pp 3-14).
Powders of Krebs-Henseleit buffer, calcium chloride dihydrate, and sodium bicarbonate were purchased from Sigma (St. Louis, Mo.). Caco-2 cells (Passage ˜100) were obtained from Roche Basel. DMEM/high medium, 4-(2-hydroxyethyl)-1-piperazineethane-sulfonic acid (HEPES), and bovine serum were obtained from JRH Bioscience (Lenexa, Kans.). MEM nonessential amino acids, L-glutamine, penicillin, and streptomycin were obtained from GIBCO Labs, Life Tech. LLC (Grand Island, N.Y.). Snapwell cell culture inserts ([…], 1.12 cm^2, 0.4 μm pore size) were obtained from Costar (Cambridge, Mass.).
Cells were grown in 75-cm^2 flasks and maintained at 37° C. in an atmosphere of 5% CO2 and 95% air. Culture media consisted of DMEM/high medium supplemented with 5% bovine serum, 25 mM HEPES, 1% MEM non-essential amino acids, 1% L-glutamine, 100 U/mL penicillin, and 100 μg/mL streptomycin. Cultures were passaged every week at a split ratio of 1-3. For the permeability studies, Caco-2 cells at passage number 110-120 were plated at a density of 400,000 cells/cm^2 on Transwell polycarbonate filters in Snapwell inserts and allowed to culture for 7 days prior to use.
Krebs-Henseleit bicarbonate buffer containing 10 mM glucose and 2.5 mM CaCl2 adjusted to pH 6.5 and 7.4 were prepared per packet instructions. Powder salts were quantitatively dissolved in about 90% of required volume with Millipore water. Calcium chloride dihydrate and sodium bicarbonate were added before pH adjustment with 1N HCl or 1N NaOH. Additional Millipore water was added to bring the solution to final volume. The solution was sterilized by filtration using membrane with a porosity of 0.22 microns and stored in the refrigerator ([…]) until use.
Differentiated cells were obtained from Cell Culture Core Facility and allowed to equilibrate at 37° C. in an atmosphere of 5% CO2 and 95% air. Snapwells inserts, containing caco-2 monolayers were rinsed in 37° C. equilibrated Krebs-Henseleit pH 7.4 buffer.
The cell insert was utilized as the diffusion chamber. The pH of the Krebs-Henseleit buffer in the apical and basolateral chambers was 6.5 and 7.4, respectively, and the initial concentration of substrate in apical side was 100 μM. […]
The Papp was calculated using the following formula: […]

Data set [1] is described as follows: Stability in simulated gastric fluid. The note with it: simulated gastric fluid pH 1.2, 37° C.; read-out: SGF T1/2 (converted). Type of data set: physicochemical. Here is the method:
(§1) Particularly relevant are water solubility, partition coefficient and stability in gastric and intestinal fluids. […] The solubility in water of a orally administered prodrug should be greater than at least about 0.1 mg/mL for optimal formulation and the half-lives in simulated gastric fluid and simulated intestinal fluid should be 1-2 h and 2-4 h respectively to allow sufficient time to traverse the stomach and be absorbed in the intestine.

A short description of data set [2]: Stability in simulated intestinal fluid. Type of data set: physicochemical. The note with it: simulated intestinal fluid pH 7.4, 37° C.; read-out: SIF T1/2 (converted). Here is the method: as §1
Another data set in a line: Solubility. In kind it is physicochemical. Here is the method: as §1
Another data set relates to HCV. The following applies: monotherapy; cited from earlier work.
Data set [3] in a line: Experimentally determined distribution coefficient. The following applies: octanol/buffered aqueous solution, pH 7.4; read-out: log D (distribution coefficient). In kind it is physicochemical. An excerpt: The expression PO/W as used herein refers to the octanol/water partition coefficient. The expression clogP as used herein refers to the calculated PO/W. Computer programs which calculate PO/W are readily available to the pharmaceutical and medicinal chemist. The term distribution coefficient refers to the experimentally determined partition coefficient between octanol and a buffered aqueous solution. The partition coefficient and distribution coefficient are generally similar but the latter is a function of the pH of the aqueous solution whereas the PO/W is independent of pH.

Where [4] appears, read: simulated gastric fluid (SGF), simulated gastric fluid, read-out: Solubility in SGF.
[5] abbreviates: simulated intestinal fluid (SIF), fassgf or other biorelevant, media is SIF, read-out: Solubility.
The mark [6] stands for this setting: aqueous media, water, or buffer pH 6.5, read-out: Solubility.

Molecules are shown by their SMILES. Converted amounts (≈) assume the structure as drawn. Where two headings read alike, the source gives them in different places. A value given as a limit tells only on which side of the number the result lay.

Regarding `CC(C)COC(=O)OC[C@H]1O[C@@H](n2ccc(N)nc2=O)[C@](C)(F)[C@@H]1OC(=O)OCC(C)C` [I-4, Carbonic acid (2R,3R,4R,5R)-5-(4-amino-2-oxo-2H-pyrimidin-1-yl)-4-fluoro-2-isobutoxycarbonyloxymethyl-4-methyl-tetrahydro-furan-3-yl ester isobutyl ester], the melting point lay in the range of 210 to 211.5 °C. Also, the Papp A→B at 30 min, 100 μM in “in vitro” is 6.4 ×10⁻⁶ cm/s. In data set [1], the half-life was above 420 min. Also, the half-life in data set [2] was above 0.625 days. The solubility in the data set “Solubility” (setting [4]) is 160 µg/mL (≈ 0.348 mM). Also, in “Solubility” (setting [5]), the solubility was 13 µg/mL (≈ 0.0283 mM).
Turning to `NC(=O)c1ncn([C@@H]2O[C@H](CO)[C@@H](O)[C@H]2O)n1` [ribavirin, 1-((2R,3R,4S,5R)-3,4-Dihydroxy-5-hydroxymethyl-tetrahydro-furan-2-yl)-1H-[1,2,4]triazole-3-carboxylic acid amide], in the data set with HCV, the “reduces serum amino transferase levels to normal” value is given as 40 % of patients and the “serum levels of HCV-RNA” value is “does not lower”.
Take `CCC(=O)OC[C@H]1O[C@@H](n2ccc(N)nc2=O)[C@](C)(F)[C@@H]1OC(=O)CC` [I-3, Propionic acid (2R,3R,4R,5R)-5-(4-amino-2-oxo-2H-pyrimidin-1-yl)-4-fluoro-4-methyl-3-propionyloxy-tetrahydro-furan-2-ylmethyl ester]: the melting point fell in the range of 185.2 to 186 °C. The half-life in data set [1] was 540 min. Further, the logD in data set [3] was found to be 0.9. In addition, the half-life in data set [2] is 3 days. In addition, the solubility in “Solubility” (setting [4]) is 13600 µg/mL (≈ 36.6 mM). Also, the solubility in “Solubility” (setting [5]) was 3700 µg/mL (≈ 9.96 mM).
Turning to `CC(C)C(=O)OC[C@H]1O[C@@H](n2ccc(N)nc2=O)[C@](C)(F)[C@@H]1OC(=O)C(C)C` [I-2, Isobutyric acid (2R,3R,4R,5R)-5-(4-amino-2-oxo-2H-pyrimidin-1-yl)-4-fluoro-3-isobutyryloxy-4-methyl-tetrahydro-furan-2-ylmethyl ester], in “in vitro”, the Papp A→B at 30 min, 100 μM came out at 3.93 ×10⁻⁶ cm/s. Also, the half-life in data set [1] is 1510 min; in data set [2], 36.1 days. In addition, the logD in data set [3] is 1.67. For the same molecule, the solubility in “Solubility” (setting [6]) was 180 µg/mL (≈ 0.451 mM); in “Solubility” (setting [4]), 13300 µg/mL (≈ 33.3 mM).
Molecule `CCCOC(=O)OC[C@H]1O[C@@H](n2ccc(N)nc2=O)[C@](C)(F)[C@@H]1OC(=O)OCCC.Cl` [I-5, Carbonic acid (2R,3R,4R,5R)-5-(4-amino-2-oxo-2H-pyrimidin-1-yl)-4-fluoro-4-methyl-2-propoxycarbonyloxymethyl-tetrahydro-furan-3-yl ester propyl ester; hydrochloride salt] yielded a melting point of 192 to 194.4 °C. Moreover, in the data set “in vitro”, the Papp A→B at 30 min, 100 μM was 13.4 ×10⁻⁶ cm/s. In addition, the half-life in data set [1] is above 624 min. The half-life in data set [2] is above 0.458 days. The solubility in “Solubility” (setting [6]) is 130 µg/mL.
In turn, `C[C@@]1(F)[C@H](O)[C@@H](CO)O[C@H]1n1ccc(N)nc1=O` [I-6, 4-amino-1-((2R,3R,4R,5R)-3-fluoro-4-hydroxy-5-hydroxymethyl-3-methyl-tetrahydro-furan-2-yl)-1H-pyrimidin-2-one, reference compound] returned a Papp A→B at 30 min, 100 μM in “in vitro” of 0.4 ×10⁻⁶ cm/s. Besides, the values for the half-life in data set [1] and in data set [2] were above 720 min and above 0.5 days, respectively. Further, the solubility in “Solubility” (setting [6]) came to 76000 µg/mL (≈ 293 mM).

By Papp A→B is commonly meant how fast a substance crosses the layer from the apical side. A lower Papp A→B goes with poor permeation. A word on the solubility: it is the dissolved amount per volume that the medium holds. As a reminder, the melting point is the temperature, or range, at which the solid turns liquid.
